According to US20030091589A1, “Methods and compositions for control of coccidiosis” (priority 2001, published 2003):
Marks after values point to notes of the source that are not given here.

What was measured:
Eimeria spp. [1] = assay: 42-day trials, growth of broiler chicks reared on Eimeria-infected recycled litter (Example 6); assay type: in vivo, Cornish Rock male broiler chicks; settings: AVATEC 90.7 g/ton, Bacitracin Zn 50 g/t, BIO-MOS 0.5 kg/tonne
Experimental: Three 42-day trials were conducted to evaluate the effects of AVATEC (lasalocid, Alpharma, Fort Lee, N.J.), an anticoccidial ionophore (90.7 g/ton); Bacitracin Zn, (50 g/t), and BIO-MOS® (0.5 kg/tonne) on the growth of broiler chicks reared on recycled litter. Sixty (day-old) Cornish Rock male broiler chicks were put into each of four treatment groups (replicated three times) consisting of the following: 1) Control (untreated birds); 2) BIO-MOS® treated, 3) AVATEC treated, and 4) Bacitracin ZN treated. Pine wood shavings on which broilers infected with E. tenella, E. maxima, and E. acervulina had been grown were used as recycled litter for the trials. Pens containing this recycled litter were assigned to the four treatment groups prior to commencement of the trial, and day old chicks were introduced for each of the three subsequent trials with the same recycled litter.
Diets consisted of mainly corn-soy supplemented with necessary vitamins and minerals to satisfy 1994 National Research Council requirements. Weekly body weights were measured. […] Mean body weight averages of chicks in all treatments decreased with each cycle of litter re-use due to infection.

E. tenella = assay: 28-day trial, broiler chicks challenged with E. tenella (Example 1); assay type: in vivo, Cornish Rock male broiler chicks
Experimental: A 28-day trial with 360 Cornish Rock male broiler chicks was conducted to investigate the effects of two medicated feeds on the suppression of detrimental effects of E. tenella (See Tables I & II).
Day-old chicks were fed standard corn soya diets containing Monensin ([…]) or a yeast cell wall/mannanoligosaccharide-containing composition (BIO-MOS®, Alltech, Inc., Nicholasville, Ky.) (1 kg/tonne). The experimental groups included: 1) negative control (unmedicated, unchallenged); 2) positive control (untreated, challenged); 3) Monensin-treated, challenged and 4) BIO-MOS®-treated, challenged. Birds were randomly assigned to three replicate pens in each treatment group. At 14 days of age, chicks were infected orally by gavage with E. tenella (50,000 oocysts/bird). The response variables measured included weekly body weight gain and cecal lesion scores as described (Johnson and Reid. 1970 “Anticoccidial Drugs: Lesion Scoring Technique in Battery and Floor Pen Experiments with Chickens.” Exp. Parasitol. 28:30-36). Treatment differences were evaluated by using the LSD procedure with the General Linear Models Procedure (SAS Institute, 1985, Cary, N.C.) using pens as the experimental units. The model statement included only treatment effects. When significance differences (P<0.05) were observed, the least significant differences (LSD) procedures was applied to test for the differences among treatments.

E. maxima = assay: 28-day trial, broiler chicks challenged with E. maxima (Example 2); assay type: in vivo, Cornish Rock male broiler chicks
Experimental: A 28-day trial with 360 Cornish Rock male broiler chicks was conducted to investigate the effects of two medicated feeds on the suppression of E. maxima infection. Thirty day-old chicks per treatment group were housed in battery cages and fed a standard soya corn diet containing Monensin ([…]) or a commercially available yeast cell-derived composition containing yeast cell wall material and mannanoligosaccharide (BIO-MOS®) (1 kg/tonne). The four experimental groups included: 1) negative control (unmedicated, unchallenged); 2) positive control (unmedicated, challenged); 3) Monensin treated, challenged, and 4) BIO-MOS® treated, challenged. Birds were assigned to treatments and replicate pens as described in Example 1. At 14 days of age, chicks were infected orally by gavage with E. maxima (50,000 oocysts/bird). The response variables measured included weekly body weight gain and cecal lesion scores. Such measurements were subjected to analysis of variance as described in Example 1.

Eimeria spp. [2] = assay: 20-day battery trial, chicks challenged with sporulated Eimeria species (Example 5); assay type: in vivo, broiler chicks (Cobb)
Experimental: A 20-day battery trial was conducted to determine the anticoccidial activity of a BIO-MOS® in broiler chicks (Cobb) challenged with sporulated Eimeria species. One hundred sixty chicks (day old) were housed in battery cages (10 chicks per cage, 459 sq.cm/bird). There were 4 replicated cages per treatment. A standard soya corn diet was provided with water ad libitum. Treatment groups were the following: 1) Negative control (non-medicated, unchallenged); 2) Positive control (non-medicated and challenged; 3) BIO-MOS®, 1 kg/tonne (challenged); and 4) Salinomycin, 60 g/tonne (challenged).
The challenge inoculum was provided at 14 days of age and contained respectively, 50,000 E. acervulina, 5,000 E. maxima or 40,000 E. tenella oocysts administered by oral gavage. Body weights and feed consumption were measured at 0, 14 and 20 days of age.
Six days post infection all birds were sacrificed and lesion scored, using the method of Johnson and Reid supra. Lesion scores were evaluated in the upper (E. acervulina), middle (E. maxima), and cecal (E. tenella) regions of the intestine.

Eimeria spp. [3] = assay: 20-day battery trial, chicks challenged with sporulated Eimeria species (Example 4); assay type: in vivo, broiler chicks (Cobb)
Experimental: A 20-day battery trial was conducted to determine the anticoccidial activity of a yeast cell composition in broiler chicks (Cobb) challenged with sporulated Eimeria species. One hundred sixty chicks (day old) were housed in battery cages (10 chicks per cage, 459 sq. cm/bird). There were four replicated cages per treatment. A standard corn soya diet was provided with water ad libitum. Treatment groups were the following: (1) Negative control (non-medicated, unchallenged); 2) positive control (non-medicated, challenged; 3) BIO-MOS®, 1 kg/tonne (challenged); and 4) Salinomycin, 60 g/tonne (challenged).
The challenge inoculum was provided at 14 days of age and contained 50,000 E. acervulina, 5,000 E. maxima or 40,000 E. tenella oocysts, respectively, administered by oral gavage. Body weights and feed consumption were measured at 9, 14 and 20 days of age. Six days post-infection all birds were sacrificed and lesion scored using the method of Johnson and Reid (1970) supra. Lesion scores were evaluated in the upper (E. acervulina), middle (E. maxima), and cecal (E. tenella) regions of the intestine.

E. acervulina = assay: 28-day trial, broiler chicks challenged with E. acervulina (Example 3); assay type: in vivo, Cornish Rock male broiler chicks
Experimental: A 28-day trial with 360 Cornish Rock male broiler chicks was conducted to investigate the effects of two medicated feeds on the suppression of detrimental effects of E. acervulina.
Day-old chicks were fed a standard corn soya diet containing Salinomycin (6 mg/kg) or BIO-MOS® (1 kg/tonne). The four experimental groups were: 1) negative control, unmedicated, unchallenged; 2) Salinomycin-treated, challenged, 3) BIO-MOS®-treated, challenged and 4)BIO-MOS® treated, unchallenged. Birds were randomly assigned to three replicate pens in each treatment group. At 14 days of age, chicks were infected orally by gavage with E. acervulina (500,000 oocysts/bird). The response variables measured included weekly body weight gain and cecal lesion scores. Data were subjected to ANOVA using the General Linear Model procedure (SAS Institute, Cary, N.C.) as described in Example 1.

[4] = Eimeria spp. infected, BIO-MOS 1 kg/t, Salinomycin 60 g/t
[5] = post-challenge period, BIO-MOS 1 kg/t, Salinomycin 60 g/t
[6] = post-challenge weight gain versus unchallenged control
[7] = pre-challenge period, BIO-MOS 1 kg/t, Salinomycin 60 g/t
[8] = whole trial, BIO-MOS 1 kg/t, Salinomycin 60 g/t

CC[C@@H](C(=O)[C@@H](C)[C@@H](O)[C@H](C)CCc1ccc(C)c(O)c1C(=O)O)[C@H]1O[C@](CC)([C@H]2CC[C@](O)(CC)[C@H](C)O2)C[C@@H]1C [AVATEC, lasalocid]
Body Weight, Trial 1 (Eimeria spp. [1]; 42-day trial 1 on recycled litter): 2271^a Grams | Body Weight, Trial 2 (Eimeria spp. [1]; 42-day trial 2 on same recycled litter): 1863^b Grams | Body Weight, Trial 3 (Eimeria spp. [1]; 42-day trial 3 on same recycled litter): 1760^ab Grams

CC[C@@]1([C@@H]2O[C@@H]([C@H]3O[C@@](O)(CO)[C@H](C)C[C@@H]3C)C[C@@H]2C)CC[C@H]([C@]2(C)CC[C@]3(C[C@H](O)[C@@H](C)[C@@H]([C@@H](C)[C@@H](OC)[C@H](C)C(=O)O)O3)O2)O1 [Monensin]
Average Weight Gain, Mean (E. tenella; E. tenella infected, weeks 2-4 after challenge, mean of 3 replications): 544 Grams | Average Weight Gain, Replication 1 (E. tenella; E. tenella infected, weeks 2-4 after challenge, replicate pen 1): 498 Grams | Average Weight Gain, Replication 2 (E. tenella; E. tenella infected, weeks 2-4 after challenge, replicate pen 2): 611 Grams | Average Weight Gain, Replication 3 (E. tenella; E. tenella infected, weeks 2-4 after challenge, replicate pen 3): 523 Grams | Cecal Lesion Scores (E. tenella; chicks infected with E. tenella 50,000 oocysts/bird at 14 days, Monensin 60 g/kg or BIO-MOS 1 kg/tonne in feed): 1.50^b | improvements in weight gain relative to E. tenella-challenged control (E. tenella; standard Monensin treatment): not seen | severity of the E. tenella infections as measured by cecal lesion scores (E. tenella; versus untreated challenged control): significantly (P<0.05) reduced | Average Weight Gain, Mean (E. maxima; E. maxima infected, 2-4 weeks after challenge, mean of 3 replications): 536 | Average Weight Gain, Replication 1 (E. maxima; E. maxima infected, 2-4 weeks after challenge, replicate pen 1): 598 | Average Weight Gain, Replication 2 (E. maxima; E. maxima infected, 2-4 weeks after challenge, replicate pen 2): 412 | Average Weight Gain, Replication 3 (E. maxima; E. maxima infected, 2-4 weeks after challenge, replicate pen 3): 599 | reduction of average cecal lesion scores (E. maxima; E. maxima infection, versus positive control): 21% | Cecal Lesion Scores (E. maxima; chicks challenged with E. maxima 50,000 oocysts/bird at 14 days, Monensin 60 g/kg or BIO-MOS 1 kg/tonne in feed): 0.93^b

CC[C@@H](C(=O)[C@@H](C)[C@@H](O)[C@H](C)[C@@H]1O[C@@H]([C@@H](CC)C(=O)O)CC[C@@H]1C)[C@H]1O[C@]2(C=C[C@@H](O)[C@]3(CC[C@@](C)([C@H]4CC[C@](O)(CC)[C@H](C)O4)O3)O2)[C@H](C)C[C@@H]1C [Salinomycin]
lesion scores versus the positive control in all regions of the gut (Eimeria spp. [2]; Eimeria spp. challenge): significantly lower lesion scores | Feed Conv. (Eimeria spp. [2]; [4]): 1.675^a | Average Cecal Lesion Scores, Ceca (Eimeria spp. [2]; cecal region (E. tenella), six days post infection, BioMos 1 kg/t, Salinomycin 60 g/t): 1.2^b | Average Cecal Lesion Scores, Mid (Eimeria spp. [2]; middle intestine (E. maxima), six days post infection, BioMos 1 kg/t, Salinomycin 60 g/t): 0.7^b | Avg. Live Wt. Gain Day 14-20 (Eimeria spp. [2]; [5]): 0.243^ab kg | % Wt. Gain Reduction (Eimeria spp. [2]; [6]): 8.90% | Avg. Live Wt. Gain Day 0-14 (Eimeria spp. [2]; [7]): 0.262^a kg | Average Cecal Lesion Scores, Total (Eimeria spp. [2]; total of regions, six days post infection, BioMos 1 kg/t, Salinomycin 60 g/t): 2.7^ab | Average Cecal Lesion Scores, Upper (Eimeria spp. [2]; upper intestine (E. acervulina), six days post infection, BioMos 1 kg/t, Salinomycin 60 g/t): 0.8^b | Avg. Live Wt. Gain Day 0-20 (Eimeria spp. [2]; [8]): 0.504^ab kg | lesion scores compared to control groups in the upper and mid intestine regions (Eimeria spp. [3]; Eimeria spp. challenge): significantly reduced (P<0.05) | Feed Conv. (Eimeria spp. [3]; [4]): 1.511^b | Average Cecal Lesion Scores, Ceca (Eimeria spp. [3]; cecal region (E. tenella), six days post-infection, BioMos 1 kg/t, Salinomycin 60 g/t): 0.6^c | Average Cecal Lesion Scores, Mid (Eimeria spp. [3]; middle intestine (E. maxima), six days post-infection, BioMos 1 kg/t, Salinomycin 60 g/t): 0.8^c | Avg. Live Wt. Gain Day 14-20 (Eimeria spp. [3]; [5]): 0.314^a kg | % Wt. Gain Reduction (Eimeria spp. [3]; [6]): −0.41% | Avg. Live Wt. Gain Day 0-14 (Eimeria spp. [3]; [7]): 0.634^a kg | Average Cecal Lesion Scores, Total (Eimeria spp. [3]; total of regions, six days post-infection, BioMos 1 kg/t, Salinomycin 60 g/t): 2.7^c | Average Cecal Lesion Scores, Upper (Eimeria spp. [3]; upper intestine (E. acervulina), six days post-infection, BioMos 1 kg/t, Salinomycin 60 g/t): 1.3^c | Avg. Live Wt. Gain Day 0-20 (Eimeria spp. [3]; [8]): 0.634^a kg | Body Weight Gain Post-Infection Week 3 (E. acervulina; Challenge: Yes (E. acervulina)): 350^a grams | Body Weight Gain Post-Infection Week 4 (E. acervulina; Challenge: Yes (E. acervulina)): 607^ab grams | Body Weight Pre-Infection Week 2 (E. acervulina; Challenge: Yes (E. acervulina)): 236^a grams | reduction of severity of cecal lesions (cecal lesion scores) (E. acervulina; E. acervulina challenge, versus positive control): 57% | Cecal Lesion Scores (E. acervulina; chicks challenged with E. acervulina 500,000 oocysts/bird at 14 days, Salinomycin 6 mg/kg or BIO-MOS 1 kg/tonne in feed): 0.92^bc
